Test: dermal toxicity test with moistened product (US EPA guidelines), samples secured to skin for 24 hours
Conditions: rabbit, in vivo, topical or ocular, male rabbits, 24 hours exposure, survivors observed for 14 days, read-out: LD50 DOSAGE
Description: Dermal toxicity tests using this formulation, a conventional synthetic polymer formulation comprising 10% w/w phorate and pure phorate (10% w/w) were performed on male rabbits by securing samples to the skin of the test animals for a period of 24 hours. At the expiry of this period rabbits were examined for mortality and surviving rabbits observed for 14 days before sacrifice and examination. The LD50 values are shown below in table 3.

## CCOP(=S)(OCC)SCSCC [Technical grade phorate (10% w/w), phorate]
  LD50: 5.2 mg/kg
